Reference: patent publication US20180116220A1, “NOVEL TRIAZOLE DERIVATIVES” (BAYER CROPSCIENCE AKTIENGESELLSCHAFT, priority 2015, published 2018)
Values joined by “and” are separate entries in the source; they are usually repeats but may differ in a detail not shown here. Identical values can stand only once. Marks after values point to notes of the source that are not given here.

Assay: LogP by HPLC on reversed phase columns (EEC directive 79/831 Annex V.A8)
Type: physicochemical
Details: for chromatographic logP: reversed phase HPLC column
Experimental: [table] If more than one LogP value is available within the same method, all the values are given and separated by “+”. […] Lambda-max-values were determined using UV-spectra from 200 nm to 400 nm and the peak values of the chromatographic signals. Measurement of LogP values was performed as outlined above.

[1] = [a] LC-UV, acidic range, 0.1% formic acid in water and acetonitrile as eluent
[2] = [b] LC-UV, neutral range, 0.001 molar ammonium acetate solution in water and acetonitrile as eluent

Row | SMILES | LogP [1] | LogP [2] | chromatographic logP [1] | chromatographic logP [2]
1 | OC(Cn1cncn1)(c1ccc(F)cc1F)C1(Oc2ccc(Cl)cc2F)CC1 (racemic) [Example I-01] | 3.52^[a]; | 3.50^[b] | – | –
2 | OC(Cn1cncn1)(c1ccc(F)cc1F)C1(Oc2ccc(F)cc2Cl)CC1 (racemic) [Example I-02] | 3.47^[a]; | 3.46^[b] | – | –
3 | OC(Cn1cncn1)(c1ccc(F)cc1F)C1(Oc2ccccc2F)CC1 (racemic) [Example I-03] | 3.04^[a] | – | – | –
4 | OC(Cn1cncn1)(c1ccc(F)cc1F)C1(Oc2ccccc2I)CC1 (racemic) [Example I-04] | 3.64^[a]; | 3.64^[b] | – | –
5 | OC(Cn1cncn1)(c1ccc(F)cc1F)C1(Oc2ccccc2Br)CC1 (racemic) [Example I-05] | 3.44^[a]; | 3.43^[b] | – | –
6 | OC(Cn1cncn1)(c1ccc(F)cc1F)C1(Oc2cccc(Br)c2)CC1 (racemic) [Example I-06] | 3.54^[a]; | 3.54^[b] | – | –
7 | OC(Cn1cncn1)(c1ccc(F)cc1F)C1(Oc2ccc(Br)cc2)CC1 (racemic) [Example I-07] | 3.59^[a]; | 3.59^[b] | – | –
8 | OC(Cn1cncn1)(c1ccc(F)cc1F)C1(Oc2ccc(I)cc2)CC1 (racemic) [Example I-08] | 3.78^[a]; | 3.80^[b] | – | –
9 | OC(Cn1cncn1)(c1ccc(F)cc1F)C1(Oc2ccc(Br)cc2F)CC1 (racemic) [Example I-09] | 3.56^[a]; | 3.54^[b] | – | –
10 | OC(Cn1cncn1)(c1ccc(F)cc1F)C1(Oc2ccccc2)CC1 (racemic) [Example I-11] | 3.67^[a]; | 3.71^[b] | – | –
11 | Cc1cc(I)ccc1OC1(C(O)(Cn2cncn2)c2ccc(F)cc2F)CC1 (racemic) [Example I-12] | 4.25^[a]; | 4.30^[b] | – | –
12 | Cc1cc(Br)ccc1OC1(C(O)(Cn2cncn2)c2ccc(F)cc2F)CC1 (racemic) [Example I-13] | 3.99^[a]; | 4.08^[b] | – | –
13 | OC(Cn1cncn1)(c1ccc(F)cc1F)C1(Oc2ccc(OC(F)(F)F)cc2)CC1 (racemic) [Example I-14] | 3.70^[a]; | 3.77^[b] | – | –
14 | OC(Cn1cncn1)(c1ccc(F)cc1F)C1(Oc2ccc(SC(F)(F)F)cc2)CC1 (racemic) [Example I-15] | 4.09^[a]; | 4.13^[b] | – | –
15 | OC(Cn1cncn1)(c1ccc(Cl)cc1F)C1(Oc2ccc(F)cc2F)CC1 (racemic) [Example I-16] | 3.44^[a] | – | – | –
16 | CC(=O)OC(Cn1cncn1)(c1ccc(F)cc1F)C1(Oc2ccc(Cl)cc2)CC1 (racemic) [Example I-17] | 3.47^[a]; | 3.47^[b] | – | –
17 | OC(Cn1cncn1)(c1ccc(F)cc1F)C1(Oc2c(F)cccc2F)CC1 (racemic) [Example I-18] | 3.02^[a] | – | – | –
18 | OC(Cn1cncn1)(c1ccc(F)cc1F)C1(Oc2c(Cl)cccc2Cl)CC1 (racemic) [Example I-19] | 3.76^[a] | – | – | –
19 | COC(Cn1cncn1)(c1ccc(F)cc1F)C1(Oc2c(Cl)cccc2Cl)CC1 (racemic) [Example I-20] | 4.06^[a] | – | – | –
20 | COC(Cn1cncn1)(c1ccc(F)cc1F)C1(Oc2c(F)cccc2F)CC1 (racemic) [Example I-21] | 3.48^[a] | – | – | –
21 | OC(Cn1cncn1)(c1ccc(F)cc1F)C1(Oc2c(F)cccc2Cl)CC1 (racemic) [Example I-22] | 3.39^[a] | – | – | –
22 | COC(Cn1cncn1)(c1ccc(F)cc1F)C1(Oc2c(F)cccc2Cl)CC1 (racemic) [Example I-23] | 3.78^[a] | – | – | –
23 | OC(Cn1cncn1)(c1ccc(F)cc1F)C1(Oc2c(F)cccc2Br)CC1 (racemic) [Example I-24] | 3.51^[a] | – | – | –
24 | COC(Cn1cncn1)(c1ccc(F)cc1F)C1(Oc2c(F)cccc2Br)CC1 (racemic) [Example I-25] | 3.83^[a] | – | – | –
25 | COC(Cn1cncn1)(c1ccc(F)cc1F)C1(Oc2ccc(F)cc2F)CC1 (racemic) [Example I-26] | 3.44^[a] | – | – | –
26 | OC(Cn1cncn1)(c1ccc(Cl)cc1F)C1(Oc2ccc(Cl)cc2)CC1 (racemic) [Example I-27] | 3.94^[a] | – | – | –
27 | COC(Cn1cncn1)(c1ccc(Cl)cc1F)C1(Oc2ccc(Cl)cc2)CC1 (racemic) [Example I-28] | 4.29^[a] | – | – | –
28 | OC(Cn1cncn1)(c1ccc(Cl)cc1F)C1(Oc2ccc(Cl)cc2F)CC1 (racemic) [Example I-29] | 3.89^[a] | – | – | –
29 | OC(Cn1cncn1)(c1ccc(F)cc1F)C1(Oc2ccc(Cl)cc2)CC1 (single isomer, unassigned) [Example I-41] | 3.48^[a] | – | – | –

Results, then the compound that gave them:

Row | LogP [1] | LogP [2] | chromatographic logP [1] | chromatographic logP [2] | SMILES
30 | 4.32^[a] | – | – | – | CCOC(Cn1cncn1)(c1ccc(F)cc1F)C1(Oc2ccc(Cl)cc2)CC1 (racemic) [Example I-30]
31 | 3.90^[a] | – | – | – | C#CCOC(Cn1cncn1)(c1ccc(F)cc1F)C1(Oc2ccc(Cl)cc2)CC1 (racemic) [Example I-31]
32 | 4.73^[a] | – | – | – | CCCOC(Cn1cncn1)(c1ccc(F)cc1F)C1(Oc2ccc(Cl)cc2)CC1 (racemic) [Example I-32]
33 | 4.34^[a] | – | – | – | C=CCOC(Cn1cncn1)(c1ccc(F)cc1F)C1(Oc2ccc(Cl)cc2)CC1 (racemic) [Example I-33]
34 | 5.68^[a] | – | – | – | C[Si](C)(C)COC(Cn1cncn1)(c1ccc(F)cc1F)C1(Oc2ccc(Cl)cc2)CC1 (racemic) [Example I-34]
35 | 4.71^[a] | – | – | – | Fc1ccc(C(Cn2cncn2)(OCC2CC2)C2(Oc3ccc(Cl)cc3)CC2)c(F)c1 (racemic) [Example I-35]
36 | 3.81^[a] | – | – | – | COC(Cn1cncn1)(c1ccc(F)cc1F)C1(Oc2ccc(Cl)cc2)CC1 (racemic) [Example I-36]
37 | 5.11^[a] | – | – | – | CC(C)COC(Cn1cncn1)(c1ccc(F)cc1F)C1(Oc2ccc(Cl)cc2)CC1 (racemic) [Example I-37]
38 | 3.70^[a] | – | – | – | OC(Cn1cncn1)(c1ccc(F)cc1F)C1(Oc2ccc(C(F)(F)F)cc2)CC1 (racemic) [Example I-38]
39 | 3.55^[a] | – | – | – | OC(Cn1cncn1)(c1ccc(F)cc1F)C1(Oc2cccc(Cl)c2)CC1 (racemic) [Example I-39]
40 | 3.63^[a] | – | – | – | OC(Cn1cncn1)(c1ccc(F)cc1F)C1(Oc2ccc(Cl)c(F)c2)CC1 (racemic) [Example I-40]
41 | 5.08^[a] | – | – | – | Fc1cc(Cl)ccc1C1(C2(Oc3ccc(Cl)cc3)CC2)CO1 (racemic) [Example V-22]
42 | 5.00^[a] | – | – | – | Fc1cc(Cl)ccc1OC1(C2(c3ccc(Cl)cc3F)CO2)CC1 (racemic) [Example V-23]
43 | 4.89^[a] | – | – | – | Fc1ccc(C2(C3(Oc4ccc(Br)c(F)c4)CC3)CO2)c(F)c1 (racemic) [Example V-24]
44 | 4.24^[a] | – | – | – | Fc1ccc(C2(C3(Oc4ccc(OC(F)F)cc4)CC3)CO2)c(F)c1 (racemic) [Example V-25]
45 | 4.44^[a] | – | – | – | Fc1ccc(C2(C3(Oc4cccc(Cl)c4F)CC3)CO2)c(F)c1 (racemic) [Example V-26]
46 | 4.36^[a] | – | – | – | Fc1ccc(C2(C3(Oc4ccc(F)c(F)c4)CC3)CO2)c(F)c1 (racemic) [Example V-27]
47 | – | – | 4.57 | 4.58 | Fc1ccc(C2(C3(Oc4ccc(Cl)cc4)CC3)CO2)c(F)c1 (centres unmarked) [Example V-1, 2-[1-(4-chlorophenoxy)cyclopropyl]-2-(2,4-difluorophenyl)oxirane]
48 | 4.50^[a]; 4.50^[b] | 4.50^[a]; 4.50^[b] | – | – | Fc1ccc(C2(C3(Oc4ccc(Cl)cc4F)CC3)CO2)c(F)c1 (centres unmarked) [Example V-2]

Row | LogP [1] | LogP [2] | chromatographic logP [1] | chromatographic logP [2] | SMILES
49 | 4.45 | 4.44 | – | – | Fc1ccc(C2(C3(Oc4ccc(F)cc4Cl)CC3)CO2)c(F)c1 (centres unmarked) [Example V-3]
50 | 3.99^[a] | – | – | – | Fc1ccc(C2(C3(Oc4ccccc4F)CC3)CO2)c(F)c1 (centres unmarked) [Example V-4]
51 | 4.36 | 4.43 | – | – | Fc1ccc(C2(C3(Oc4ccccc4Br)CC3)CO2)c(F)c1 (centres unmarked) [Example V-5]
52 | 4.63 | 4.71 | – | – | Fc1ccc(C2(C3(Oc4cccc(Br)c4)CC3)CO2)c(F)c1 (centres unmarked) [Example V-6]
53 | 4.66 | 4.74 | – | – | Fc1ccc(C2(C3(Oc4ccc(Br)cc4)CC3)CO2)c(F)c1 (centres unmarked) [Example V-7]
54 | 4.58 | 4.66 | – | – | Fc1ccc(C2(C3(Oc4ccccc4I)CC3)CO2)c(F)c1 (centres unmarked) [Example V-8]
55 | 4.82 | 4.90 | – | – | Fc1ccc(C2(C3(Oc4cccc(I)c4)CC3)CO2)c(F)c1 (centres unmarked) [Example V-9]
56 | 4.87 | 4.95 | – | – | Fc1ccc(C2(C3(Oc4ccc(I)cc4)CC3)CO2)c(F)c1 (centres unmarked) [Example V-10]
57 | 4.57 | 4.65 | – | – | Fc1ccc(C2(C3(Oc4ccc(Br)cc4F)CC3)CO2)c(F)c1 (centres unmarked) [Example V-11]
58 | – | 5.40 and 5.48 | – | – | Cc1cc(I)ccc1OC1(C2(c3ccc(F)cc3F)CO2)CC1 (centres unmarked) [Example V-12]
59 | 4.14 | 4.21 | – | – | N#Cc1cc(I)ccc1OC1(C2(c3ccc(F)cc3F)CO2)CC1 (centres unmarked) [Example V-13]
60 | 5.25^[a]; 5.25^[b] | 5.25^[a]; 5.25^[b] | – | – | Cc1cc(Br)ccc1OC1(C2(c3ccc(F)cc3F)CO2)CC1 (centres unmarked) [Example V-14]
61 | 4.70 | 4.86 | – | – | Fc1ccc(C2(C3(Oc4ccc(OC(F)(F)F)cc4)CC3)CO2)c(F)c1 (centres unmarked) [Example V-15]
62 | 5.23 | 5.24 | – | – | Fc1ccc(C2(C3(Oc4ccc(SC(F)(F)F)cc4)CC3)CO2)c(F)c1 (centres unmarked) [Example V-16]
63 | 4.56^[a] | – | – | – | Fc1ccc(OC2(C3(c4ccc(Cl)cc4F)CO3)CC2)c(F)c1 (centres unmarked) [Example V-17]
64 | 4.11^[a] | – | – | – | Fc1ccc(C2(C3(Oc4c(F)cccc4F)CC3)CO2)c(F)c1 (centres unmarked) [Example V-18]
65 | 4.80^[a] | – | – | – | Fc1ccc(C2(C3(Oc4c(Cl)cccc4Cl)CC3)CO2)c(F)c1 (centres unmarked) [Example V-19]
66 | 4.49^[a] | – | – | – | Fc1ccc(C2(C3(Oc4c(F)cccc4Cl)CC3)CO2)c(F)c1 (centres unmarked) [Example V-20]
67 | 4.59^[a] | – | – | – | Fc1ccc(C2(C3(Oc4c(F)cccc4Br)CC3)CO2)c(F)c1 (centres unmarked) [Example V-21]
